Measured values reported in publication PMC7979765, “trans-Translation inhibitors bind to a novel site on the ribosome and clear Neisseria gonorrhoeae in vivo” (Nature Communications, 2021).
In brackets after ≈: the same amount, converted by molar mass. Several values for one entry are separate records, joined by “and”; a condition that tells them apart may be missing. Equal entries are not always repeated.

How the values were obtained:
[1] = system: Neisseria gonorrhoeae; assay: MIC, microbroth dilution, G77L medium; assay type: cell-based; details: Neisseria gonorrhoeae ATCC 49226; source data, individual replicates
[2] = system: HeLa cells; assay: Mammalian cell cytotoxicity (CC50); assay type: cell-based, human; details: HeLa, replicates
Description: The half maximal cytotoxic concentration (CC50) of each compound against HeLa cells (ATCC CCL-2) was measured as previously described. […] The mean values for each biological replicate were averaged, and the CC50 was determined using a 4-parameter nonlinear curve fitting algorithm (GraphPad Prism). The average of the CC50s from two biological replicates was calculated and reported.

[3] = Liver microsome stability, murine; assay type: in vitro ADME, mouse; details: murine liver microsomes; for Average MLMS t½: average of replicates; for MLMS t½: individual replicates
Description: To examine potential for first-pass metabolism of analogs in the liver, the stability of analogs in the presence of liver microsome preparations (Eurofins Discovery for human, dog and rat; Xenotech for mouse) was measured using the method of Kuhnz, et al.[50]. for murine studies and Oback for the dog, human and rat studies. The amount of parent compound remaining after incubation with microsomes in the presence of NADPH over a 30 min time range was measured using a reverse-phase liquid chromatography/mass spectroscopy method that was customized for each compound. Half-lives were calculated using linear regression analysis of several time points.

[4] = Aqueous solubility (nephelometric); assay type: physicochemical; details: for Solubility: single replicates
[5] = system: Escherichia coli; assay: microbe, parasite or virus in culture; assay type: cell-based; details: E. coli KLE701 (ΔtolC::tet); source data, individual replicates
[6] = system: HeLa cells; assay: Mammalian cell cytotoxicity (CC50); assay type: cell-based, human; details: one value per replicate

| SMILES | MIC [1] | NORMALIZED DATA (Fraction DMSO Control) ([2]; [CMPD] 0.78125 µM) | NORMALIZED DATA (Fraction DMSO Control) ([2]; [CMPD] 1.5625 µM) | NORMALIZED DATA (Fraction DMSO Control) ([2]; [CMPD] 3.125 µM) | NORMALIZED DATA (Fraction DMSO Control) ([2]; [CMPD] 6.25 µM) | NORMALIZED DATA (Fraction DMSO Control) ([2]; [CMPD] 12.5 µM) | NORMALIZED DATA (Fraction DMSO Control) ([2]; [CMPD] 25 µM) | NORMALIZED DATA (Fraction DMSO Control) ([2]; [CMPD] 50 µM) | NORMALIZED DATA (Fraction DMSO Control) ([2]; [CMPD] 100 µM) | Average MLMS t½ [3] [min] | MLMS t½ [3] [min] | Average solubility [4] [µM] | Solubility [4] [µM] | MIC [5] [µg/mL] | CC50 [6] |
| --- | --- | --- | --- | --- | --- | --- | --- | --- | --- | --- | --- | --- | --- | --- | --- |
| O=C(Nc1nnc(-c2ccccc2)o1)c1ccc(Cl)cc1 [MBX-3910] | 0.2341 µg/mL and 0.1172 µg/mL | 1.08 Fraction DMSO Control and 1.097 Fraction DMSO Control and 1.14 Fraction DMSO Control and 1.04 Fraction DMSO Control and 1.054 Fraction DMSO Control and 1.05 Fraction DMSO Control | 1.101 Fraction DMSO Control and 1.0991 Fraction DMSO Control and 1.152 Fraction DMSO Control and 1.073 Fraction DMSO Control and 1.065 Fraction DMSO Control and 1.0674 Fraction DMSO Control | 1.088 Fraction DMSO Control and 1.064 Fraction DMSO Control and 1.13 Fraction DMSO Control and 1.029 Fraction DMSO Control and 1.037 Fraction DMSO Control and 1.067 Fraction DMSO Control | 1.079 Fraction DMSO Control (2×) and 1.139 Fraction DMSO Control and 1.051 Fraction DMSO Control and 1.03 Fraction DMSO Control and 1.024 Fraction DMSO Control | 1.036 Fraction DMSO Control and 1.056 Fraction DMSO Control and 1.0972 Fraction DMSO Control and 1.011 Fraction DMSO Control and 0.9941 Fraction DMSO Control and 0.9999 Fraction DMSO Control | 0.7722 Fraction DMSO Control and 0.7686 Fraction DMSO Control and 0.9894 Fraction DMSO Control and 0.8554 Fraction DMSO Control and 0.8395 Fraction DMSO Control and 0.8785 Fraction DMSO Control | 0.4225 Fraction DMSO Control and 0.4189 Fraction DMSO Control and 0.8248 Fraction DMSO Control and 0.6289 Fraction DMSO Control and 0.6212 Fraction DMSO Control and 0.6018 Fraction DMSO Control | 0.1921 Fraction DMSO Control and 0.2466 Fraction DMSO Control and 0.6012 Fraction DMSO Control and 0.4687 Fraction DMSO Control and 0.4717 Fraction DMSO Control and 0.4092 Fraction DMSO Control | 5 | 5 | 12.5 | 12.5 (≈ 3.75 µg/mL) | 0.9366 (≈ 3.12 µM) | 42.1 µM and 40.9 µM and > 100 µM and 36.7 µM and 35.8 µM and 41 µM |
| O=C(Nc1nnc(-c2ccc(F)cc2)o1)C1CCCCC1 [MBX-3709] | 7.233 µg/mL and 3.616 µg/mL | 0.9843 Fraction DMSO Control and 0.9839 Fraction DMSO Control and 1.011 Fraction DMSO Control and 0.9844 Fraction DMSO Control and 1.002 Fraction DMSO Control and 0.9797 Fraction DMSO Control | 1.013 Fraction DMSO Control and 1.069 Fraction DMSO Control and 1.052 Fraction DMSO Control and 1.032 Fraction DMSO Control and 1.012 Fraction DMSO Control and 1.033 Fraction DMSO Control | 1.017 Fraction DMSO Control and 1.012 Fraction DMSO Control and 1.028 Fraction DMSO Control and 1.006 Fraction DMSO Control and 0.9958 Fraction DMSO Control and 1.035 Fraction DMSO Control | 0.9952 Fraction DMSO Control and 1.018 Fraction DMSO Control and 1.016 Fraction DMSO Control and 1.009 Fraction DMSO Control and 1.013 Fraction DMSO Control and 1.001 Fraction DMSO Control | 1.025 Fraction DMSO Control and 1.013 Fraction DMSO Control and 1.022 Fraction DMSO Control and 1.004 Fraction DMSO Control and 1.002 Fraction DMSO Control and 1.0412 Fraction DMSO Control | 1.006 Fraction DMSO Control and 1.033 Fraction DMSO Control and 1.009 Fraction DMSO Control and 1.014 Fraction DMSO Control and 0.9855 Fraction DMSO Control and 1.046 Fraction DMSO Control | 0.7814 Fraction DMSO Control and 0.7858 Fraction DMSO Control and 0.7422 Fraction DMSO Control and 0.8088 Fraction DMSO Control and 0.7466 Fraction DMSO Control and 0.7859 Fraction DMSO Control | 0.7348 Fraction DMSO Control and 0.7441 Fraction DMSO Control and 0.7211 Fraction DMSO Control and 0.7931 Fraction DMSO Control and 0.7717 Fraction DMSO Control and 0.7681 Fraction DMSO Control | <5 | <5 | 25 | 25 (≈ 7.23 µg/mL) | 28.931 (≈ 100 µM) | ≥ 100 µM |
